Experimental findings from patent US20240254135A1, “POLYPHENOL COMPOUNDS” (Epirium Bio Inc., priority 2022, published 2024) are described below.

The experiment has as its target T1, mitochondrial ATP synthase (Mus musculus, UniProt P56480+Q03265).
T1 construct: from tissue; host or cells: mouse heart, isolated mitochondria (fresh or frozen)
In words: ATP hydrolysis (proton release/ECAR, Seahorse XF96) in fresh heart mitochondria. The following applies: for changes in ATP hydrolysis: fresh heart mitochondria (FIG. 1, FIG. 2). It counts as biochemical. The text has this: To assess whether the fraction of synthetic and reverse hydrolytic activities of mitochondrial ATP synthase can be measured in the same preparation, a protocol was developed to monitor changes in oxygen consumption and proton release in response to changes in mitochondrial ATP synthase activity. The proton released and the concomitant changes in the pH can be monitored using the ECAR (extracellular acidification) channel in the Agilent Seahorse XF analyzer using isolated mitochondria, to ensure that the changes in pH cannot be attributed to glycolysis or other contributors to ECAR.
Mice were anesthetized with isoflurane followed by a cervical dislocation, and the heart was immediately removed and placed in ice cold relaxation buffer (5 mM sodium pyrophosphate, 100 mM KCl, 5 mM EGTA, 5 mM HEPES; pH 7.4). The heart was squeezed with tweezers to remove blood, minced with scissors, and then placed in a glass-glass Dounce homogenizer with 3 mL of HES homogenization buffer (250 mM sucrose, 5 mM HEPES, 1 mM EDTA; pH to 7.2, adjusted with KOH). The heart tissue was homogenized first with the loose pestle and followed by the tight pestle. The homogenized tissue was placed in a pre-chilled 15 ml conical tube and centrifuged at 900×g (4° C.) for 10 minutes (min). The supernatant was removed, placed in a new tube and centrifuged again at 900×g for 10 min. The supernatant was then transferred to 2 mL microcentrifuge tubes and centrifuged at 10,000×g (4° C.) for 10 min. The mitochondrial pellets were re-suspended in ice cold HES buffer and mitochondrial protein was measured with a BCA assay (Pierce). The concentrated mitochondrial pellet was stored on ice.
Heart mitochondria (0.75-1.5 μg) were loaded into a Seahorse XF96 microplate in 20 μL of MAS (70 mM Sucrose, 220 mM Mannitol, 5 mM KH2PO4, 5 mM MgCl2, 1 mM EGTA, 2 mM HEPES; pH 7.2) plus 1% free fatty acid BSA containing substrates. The loaded plate was centrifuged at 2,000×g for 5 min at 4° C. (no brake) and an additional 130 μL of MAS was added to each well. When assessing compounds effect on respirometry, the compounds were added at this point at the indicated concentration in MAS buffer. To avoid disrupting mitochondrial adherence to the bottom of the plate, MAS was added using a multichannel pipette pointed at a 45° angle to the top of the well-chamber, as instructed by the manufacturer. Substrate concentrations in the well when assay was starting in state 4 were as follow: (i) 5 mM pyruvate+5 mM malate or ii) 5 mM succinate+2 μM rotenone. Substrate concentrations in the well when assay was starting in state 3 were as follow: (i) 5 mM pyruvate+5 mM malate+4 mM ADP or ii) 5 mM succinate+2 μM rotenone+4 mM ADP. Injections were performed as indicated in the figure descriptions at the following final concentration in the well: oligomycin (3.5 μM), FCCP (4 μM), Antimycin A (2 μM). Compounds were added at the indicated concentration.
ATP hydrolysis capacity or state 4 acidification was measured using Seahorse XF96 as described in Divakaruni et al. (2018) Anal Biochem 552:60-65 and Acin-Perez et al. (2021) Life 11(9):949, in MAS (70 mM Sucrose, 220 mM Mannitol, 5 mM KH2PO4, 5 mM MgCl2, 1 mM EGTA, 2 mM HEPES; pH 7.2). Plates were loaded with 0.75-1.5 μg of mouse heart mitochondria, or 25 μg of cell lysate. Cell lysates were prepared by subjecting the samples to 4 cycles of free thaw (liquid nitrogen—37° C. water bath) before measuring protein concentration. When assessing compounds effect on respirometry, the compounds were added in MAS after sample centrifugation. Initial respiration of the samples was sustained by the addition of 5 mM succinate+2 μM rotenone in the MAS after centrifugation. Injections were performed at the following final concentration in the well: Antimycin A (2 μM), oligomycin (5 μM), FCCP (1 μM), ATP (20 mM). To assess maximal ATP concentration, ATP was injected consecutively. […]

Turning to `COc1cc(C2Oc3ccccc3CC2O)ccc1F` (single isomer, unassigned) [Compound 75b, 2-(4-fluoro-3-methoxyphenyl)chroman-3-ol], the “changes in ATP hydrolysis” value is reported as “very mild changes”.
For `Oc1ccc2c(c1)OC(c1ccc(O)c(C(F)(F)F)c1)C(O)C2` (single isomer, unassigned) [Compound 77b, 2-(4-hydroxy-3-(trifluoromethyl)phenyl)chromane-3,7-diol], the “changes in ATP hydrolysis” value is reported as “very mild changes”. Besides, the change in hydrolysis result (fresh mitochondria, Complex I) is on record as “no clear change”. Also, for the setting “fresh mitochondria, Complex II”, the decrease in hydrolysis is given as 20%.
As to `Oc1cc(O)c2c(c1)O[C@H](c1ccc(O)c(O)c1)[C@H](O)C2` [Epicatechin, (+)Epicatechin, reference compound], for the setting “mitochondria preparation and substrate not given”, the decrease in hydrolysis was 10-25%.
